Source: article PMC8617258, “Plant LHC-like proteins show robust folding and static non-photochemical quenching” (Nature Communications, 2021)
Substitutions are numbered along the chain they refer to.

T1: LIL3 (LIL3.1) (Arabidopsis thaliana, UniProt Q9SYX1, N177D)
T1 construct: PCC 6803 GT-P, DDM-solubilized, dimer
T1 sequence (Q9SYX1 40-262 N177D): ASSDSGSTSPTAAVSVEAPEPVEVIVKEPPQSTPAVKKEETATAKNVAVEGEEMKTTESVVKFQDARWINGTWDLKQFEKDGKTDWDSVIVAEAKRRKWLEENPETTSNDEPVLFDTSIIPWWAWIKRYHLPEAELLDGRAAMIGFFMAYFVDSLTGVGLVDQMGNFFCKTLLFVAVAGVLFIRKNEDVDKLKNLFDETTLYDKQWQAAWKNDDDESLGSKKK

T2: LIL3 (LIL3.1) (Arabidopsis thaliana, UniProt Q9SYX1)
T2 construct: PCC 6803 GT-P, DDM-solubilized, dimer
T2 sequence (Q9SYX1 40-262): T1 sequence (Q9SYX1 40-262 N177D) with D138N

T3: LIL3 (LIL3.1) (Arabidopsis thaliana, UniProt Q9SYX1, N177A)
T3 construct: PCC 6803 GT-P, DDM-solubilized, dimer
T3 sequence (Q9SYX1 40-262 N177A): T1 sequence (Q9SYX1 40-262 N177D) with D138A

T4: ELIP2 (Arabidopsis thaliana, UniProt Q94K66)
T4 construct: PCC 6803 GT-P, DDM-solubilized, monomeric
T4 sequence (Q94K66 44-193): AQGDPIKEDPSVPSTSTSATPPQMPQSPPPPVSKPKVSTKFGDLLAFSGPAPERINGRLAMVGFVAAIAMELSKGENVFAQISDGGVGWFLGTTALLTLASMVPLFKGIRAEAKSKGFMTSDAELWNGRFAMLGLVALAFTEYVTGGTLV

B1: LIGHT-HARVESTING-LIKE 3 protein LIL3.1 from Arabidopsis, 8xHis-tagged, without the predicted signal sequence (natural protein, UniProt Q9SYX1 40-262, looked up)
chain: T1 sequence (Q9SYX1 40-262 N177D) with D138N
notes: printed mass 25.1 KDa; Cloned into the pPD-NFLAG plasmid by NdeI and BglII with 8xHis added by the forward primer; From the wild type background it carries Chl and zeaxanthin; from ZEP^+ and xant^- it is (almost) colourless; also called LIL3[2]; LIL3 (ZEP^+); source: Synechocystis sp; PCC 6803 (psbAII promoter; wild type, ZEP^+ or xant^- background), purified from DDM-solubilized membranes …

Legend:
LIL3 (LIL3.1) [1] = biological target: T1, LIL3 (LIL3.1); assay: co-purification, 2D CN/SDS-PAGE; type: binding; conditions: DDM-solubilized
LIL3 (LIL3.1) [2] = biological target: T2, LIL3 (LIL3.1); assay: co-purification (Ni-NTA, sucrose gradient), CN-PAGE, SEC, HPLC pigment analysis; type: binding; conditions: dimer; pH 6.5, 0.03% DDM, 15 °C
LIL3 (LIL3.1) [3] = biological target: T3, LIL3 (LIL3.1); assay: co-purification; pigment colour of the purified protein; type: binding; conditions: DDM-solubilized
ELIP2 = biological target: T4, ELIP2; assay: co-purification (Ni-NTA, sucrose gradient), SEC, HPLC pigment analysis; type: binding; conditions: pH 6.5, 0.03% DDM, 15 °C
[4] = biological target: the molecule itself; assay: native gel or EMSA; 2D clear native/SDS-PAGE (4-14% CN gel, DDM) of LIL3 purified from the wild type background, pigmented; Coomassie stain; mass judged against Synechocystis membrane complexes with a detergent belt assumed

| Molecule | no binding (LIL3 (LIL3.1) [1]) | co-purification (Ni-NTA, sucrose gradient), CN-PAGE, SEC, HPLC pigment analysis (LIL3 (LIL3.1) [2]) | no binding (LIL3 (LIL3.1) [3]) | co-purification (Ni-NTA, sucrose gradient), SEC, HPLC pigment analysis (ELIP2) | stoichiometry N [4] |
| --- | --- | --- | --- | --- | --- |
| CC1=C(/C=C/C(C)=C/C=C/C(C)=C/C=C/C=C(C)/C=C/C=C(C)/C=C/C2=C(C)C[C@@H](O)CC2(C)C)C(C)(C)C[C@H](O)C1 [Zea, zeaxanthin] | showing that the N177D mutation abolishes pigment binding | Pigments extracted from the LIL3 SEC fraction contained Zea and Chl | (LIL3-N177A and LIL3-N177D) were purified from Synechocystis as completely colourless proteins | Pigments co-isolated with ELIP2 consisted of Zea, Chl, and β-Car | – |
| CC1=C(/C=C/C(C)=C/C=C/C(C)=C/C=C/C=C(C)/C=C/C=C(C)/C=C/C2=C(C)CCCC2(C)C)C(C)(C)CCC1 [β-Car] | – | – | – | Pigments co-isolated with ELIP2 consisted of Zea, Chl, and β-Car | – |
| B1 | – | – | – | – | 2 |
